# Experiment: Aggregation in aqueous solution by particle-size analyzer (light scattering)
# Type: physicochemical
# Details: aqueous solution (10% DMSO), 4 and 0.04 μg/mL solutions
# Excerpt: Thus, the aggregation properties of 6 and paclitaxel were studied as a function of concentration in aqueous solution (10% DMSO) using a Brookhaven 90Plus submicrometer particle-size analyzer.
structure (smiles),measurement,value
"CC(=O)O[C@H]1C(=O)[C@@]2(C)[C@H]([C@H](OC(=O)c3ccccc3)[C@]3(O)C[C@H](OC(=O)[C@H](O)[C@@H](NC(=O)c4ccccc4)c4ccccc4)C(C)=C1C3(C)C)[C@]1(OC(C)=O)CO[C@@H]1C[C@@H]2O [paclitaxel, Paclitaxel]",light scattering (aggregation),did not show any scattering
